{"source": "patent US20150174158A1", "about": "“[…] NITRIC OXIDE FOR TREATING RESPIRATORY DISEASES” (Advanced Inhalation Therapies (AIT) Ltd., priority 2012, published 2015)", "key": {"methemoglobin (SpMet)": {"test_system": "methemoglobin (SpMet)", "experiment": "Phase I safety study: methemoglobin (SpMet) by pulse oximeter", "assay_type": "in vivo, human", "procedure": "(§1) After obtaining informed consent, treatment was initiated within 5 days of enrollment. Subjects were housed in a hospital ward and received 160 ppm gNO for 30 minutes every four hours (Q4h), five times a day, for five consecutive days by inhalation. Subjects returned for follow-up evaluations 3, 7 and 21 days after the final gNO administration. Subject safety was determined by monitoring vital signs, methemoglobin levels, lung function, blood chemistry, hematology, prothrombin time, inflammatory cytokine/chemokines levels and endothelial activation. These parameters were compared to baseline and at various time-points during and after gNO administration.\nThe levels of gNO, NO2, O2 and methemoglobin were monitored during the administration of gNO. The target gas mixture was 160 ppm gNO with a nitrogen dioxide (NO2) level of less than 5 ppm and an oxygen (O2) level ranging from 21% to 25%. Inspiratory NO, NO2 and O2 levels were continuously monitored by sampling from the mouthpiece sample port located about 6 millimeters from the mouth of the subject with an AeroNOx (Pulmonox, AB, Canada) NO, NO2 and O2 electrochemical analyzer. Delivery safety was determined by the number of occasions that NO2 exceeded 5 ppm, gNO exceeding 10% variation and O2 dropping below 20% during gNO administration. A commercially available noninvasive pulse oximeter (Rad 57, Masimo Corporation, USA) was used to measure saturation levels at the periphery of methemoglobin (SpMet).\nThese parameters were measured continuously during every gNO administration course and for 3.5 hours after the first treatment of the day. Daily serum samples were collected and frozen at −80° C. and the serum […] level was measured using the Griess reagent.\nFIGS. 4A-B present results of monitoring methemoglobin levels before, during and after inhalation of 160 ppm of gaseous nitric oxide by 10 healthy human individuals, undergone 5 gNO administration courses daily, each lasting 30 minutes, for 5 consecutive days, while methemoglobin levels were measured using a pulse oximeter, wherein FIG. 4A is a plot of methemoglobin levels by percents as a function of time as measured before (time point 0), during 250 individual 30 minutes gNO administration courses (time interval of 0 to 30 minutes), after the courses (time interval of 30 to 60 minutes) and at 120 minutes, 180 minutes and 240 minutes after gNO administration was discontinued, and FIG. 4B is a plot of methemoglobin levels by percents as a function of time as measured at the beginning and end of 30 minutes gNO administration courses given over the course of 5 days, and followed 8, 12 and 26 days after gNO administration was discontinued."}, "[1]": {"experiment": "Phase I open label safety study of intermittent 160 ppm gNO inhalation: adverse events, vital signs, oxygenation, NO2", "assay_type": "in vivo, human", "description": "10 healthy adult volunteer subjects (5 males, 5 females), aged 20 to 62 years, were enrolled in the study after screening their medical history, a physical examination, pulmonary function tests and blood values. Exclusion criteria included individuals less than 19 years of age, pregnant females and unwilling to practice birth control during the study, diagnosed with pulmonary disease, epistaxis, hemoptysis, methemoglobinemia, organ transplant recipient or receiving antibiotic therapy.\nas §1\nSubjects were administered gNO through a modified disposable mouthpiece to maximize mixing. Inspiration was spontaneously initiated by the subject from a conventional intermittent positive pressure breathing respirator (Mark-7, Carefusion, USA) in fixed flow mode delivering 48 liters per minute (LPM). Flows of gas were verified with a calibrated mass flow meter (TSI, USA). Gaseous nitric oxide (gNO, obtained at INOmax, Ikaria, USA) at a concentration of 800 ppm delivered at a flow of 12 LPM was titrated into a distal delivery port on the mouth piece connected to the respirator during inspiratory phase only (pressure switch). The Mark 7 respirator was supplied by an air/oxygen blender (Bird Sentry, Carefusion, USA) set to deliver 26% oxygen.\nThe levels of gNO, NO2, O2 and methemoglobin were monitored during the administration of gNO. […] Inspiratory NO, NO2 and O2 levels were continuously monitored by sampling from the mouthpiece sample port located about 6 millimeters from the mouth of the subject with an AeroNOx (Pulmonox, AB, Canada) NO, NO2 and O2 electrochemical analyzer. Delivery safety was determined by the number of occasions that NO2 exceeded 5 ppm, gNO exceeding 10% variation and O2 dropping below 20% during gNO administration. […]\nGeneral medical examinations were performed by a pulmonary physician on screening and on days 8, 12 and 26 to obtain oxygenation and vital sign measurements. […] Oxygenation was measured with a pulse oximeter (Rad 57, Masimo Corporation, USA) which was used according to manufacturer's guidelines to measure functional oxygen saturation of arterial hemoglobin (SpO2) and heart rate. These parameters were measured continuously during every gNO administration and for 3.5 hours after the first treatment of the day. Cardiovascular status was determined by monitoring heart rate, blood pressure, respiratory rate and temperature. Values were recorded prior to the start of each gNO administration, following a 5 minute rest. During treatments, vital signs (except temperature) were also performed 15 minutes after the start of the treatment and at the end of gNO administration and recorded. After the first treatment each day, vital signs were recorded at every 30 minutes until the start of the second gNO administration of the day."}, "[2]": {"test_system": "highly pathogenic Avian Influenza H7N3", "conditions": "cited from earlier work"}}, "data": [{"smiles": "[N]=O", "note": "[gNO, nitric oxide]", "values": [{"measurement": "residual increase in SpMet at follow-up", "setting": "methemoglobin (SpMet); 3, 7 and 21 days after final exposure", "value": "did not show any residual increase"}, {"measurement": "time for SpMet to return to baseline", "setting": "methemoglobin (SpMet); after 30 min 160 ppm gNO", "value": 3.5, "unit": "h"}, {"measurement": "highest SpMet", "setting": "methemoglobin (SpMet); end of the 30 minutes treatment, 160 ppm gNO, baseline 0.16 (SD=0.10)", "value": 2.5, "unit": "%"}, {"measurement": "accumulative effect on SpMet", "setting": "methemoglobin (SpMet); five daily treatments for five consecutive days", "value": "no accumulative or lingering effect"}, {"measurement": "average increase of SpMet", "setting": "methemoglobin (SpMet); single 30 min treatment course, 160 ppm gNO, SD=0.08", "value": 0.9, "unit": "%"}, {"measurement": "minor adverse events", "setting": "[1]; 160 ppm gNO 30 min, 5 times a day, 5 days, 10 healthy adults", "value": "Three minor adverse events were reported"}, {"measurement": "significant adverse events", "setting": "[1]; 160 ppm gNO 30 min, 5 times a day, 5 days, 10 healthy adults, 250 administrations", "value": "no significant adverse events were observed"}, {"measurement": "vital signs", "setting": "[1]; during and after gNO administration, 160 ppm", "value": "remained within normal limits"}, {"measurement": "lowest observed SpO2", "setting": "[1]; during or after 160 ppm gNO administration", "value": 93, "unit": "%"}, {"measurement": "mean NO2 level during the treatments", "setting": "[1]; inspired gas at mouthpiece, 160 ppm gNO, 95% confidence level 2.17-2.47", "value": 2.32, "unit": "ppm"}, {"measurement": "infectivity (plaque formation)", "setting": "[2]", "value": "capable of reducing the infectivity"}]}]}
